# Data published in US20050004144A1, “Combined use of IMPDH inhibitors with toll-like receptor agonists” (REGENTS OF THE UNIVERSITY OF CALIFORNIA, priority 2003, published 2005).
# “Also recorded” adds a separate entry of the source. Read-outs that look alike come from different tables or passages of the source.
# How the values were obtained:
# [1] = system: mice; settings: cited from earlier work
# [2] = system: Punta toro; settings: literature (Smee et al.; Sidwell et al.); cited from earlier work
# [3] = system: cowpox; settings: cidofovir 30 mg/kg i.p.; Smee et al. 2002; cited from earlier work
# [4] = system: human peripheral blood mononuclear cells; test: Cytokine production of TLR-L-stimulated human peripheral blood mononuclear cells with IMPDH inhibitors; assay type: cell-based
# [5] = system: Type I interferon in serum; test: Type I interferon in serum of mice injected with TOG and Mb; assay type: in vivo; settings: mice injected intravenously with TOG 250 μg and increasing doses of Mb
# Procedure: (§1) Type I interferon in serum was measured and results are shown.
# [6] = system: splenocytes; test: Type I interferon production by splenocytes (bioassay); assay type: cell-based, mice; settings: for TLR7 mediated type I interferon production in splenocytes: TOG or R-848 with or without Mb 10 μM, 24 hrs
# Procedure: as §1
# Splenocytes of WT or SCID mice were stimulated with the indicated stimuli and Type I interferon was by bioassay.
# (FIG. 20.) Splenocytes of WT or SCID mice were stimulated with the indicated stimuli and Type I interferon levels were determined by bioassay.
# [7] = system: Mouse bone marrow-derived macrophages (BMDM); test: Cytokine production of TLR ligand-stimulated BMDM with IMPDH inhibitors (ELISA); assay type: cell-based; settings: for IL-12 production with TOG plus IMPDH inhibitor: TOG 100 μM, mizoribine 10 μM or mizoribine base 10 μM; for cytokine production induced by several different TLR-L: mouse bone marrow derived macrophages
# [8] = system: human peripheral blood leukocytes (hPBL); test: IL-12 production in human peripheral blood leukocytes (ELISA); assay type: cell-based; settings: TOG 100 μM, 24 hours
# [9] = system: IRF-1, IRF-3, IRF-7, NF-kB, STAT-1; test: Activation of IRFs, NF-kB and STAT-1 in BMDM (immunoblotting of nuclear extracts, EMSA); assay type: cell-based, mouse
# [10] = system: STAT-1; test: STAT-1 activation in hPBL (western blotting); assay type: cell-based, human; settings: by TOG, R-848 1 μM plus increasing doses, 3 hrs
# Procedure: In the right panel, hPBL were stimulated with R-848 (1 μM) plus increasing doses of Mb or ribavirin (Rb) for 3 hrs and activation of STAT-1 was measured by western blotting. β-actin levels were measured as a control
# [11] = system: DNA dependent protein kinase catalytic subunit (DNA-PKcs); test: Activation of DNA-PK in BMDM (in vitro kinase assay, GST-p53 substrate or autophosphorylation); assay type: cell-based
# Procedure: IMPDH inhibitors and TLR7 activate DNA-PK. BMDM were stimulated with the Mb alone, TOG alone, or a combination of Mb and TOG. Activation of DNA-PK was measured by in vitro kinase assay using a GST-p53 substrate or DNA-PKcs autophosphorylation.
# Activation of DNA-PK was measured by in vitro kinase assay using a GST-p53 substrate or DNA-PKcs autophosphorylation.
# [12] = system: bone marrow derived dendritic cells (DC's); test: TLR7 signaling in bone marrow derived dendritic cells; assay type: cell-based; settings: DC's stimulated by R-848 with Mb
# Procedure: Bone marrow derived DC's were stimulated by R-848 with or without Mb for the indicated time period, and activation of NF-κB, MAP kinases (p38 and EKR) was measured. Actin levels were measured as a control.
# [13] = system: Salmonella; settings: human macrophages treated overnight with IFN-γ 100 ng/ml; over 24 hours; cited from earlier work
# [14] = system: Listeria monocytogenes; test: Listeria infection in mice pretreated with TLR ligands; assay type: in vivo; settings: 10 μg three days before infection with 7×10^5 Listeria monocytogenes, observed nine days
# Procedure: Groups of six mice were injected with 10 μg of either ISS-ODN, Pam3Cys, or polyI:C three days before infection with 7×10^5 Listeria monocytogenes. […] 5 mice also each received 10 μg of R-848, 24 hours before infection. […]
# [15] = system: murine bone marrow mononuclear cells; test: Cytokine responses of murine bone marrow mononuclear cells to TLR ligands (ELISA); assay type: cell-based; settings: 48 hours, supernatant ELISA, PolyI:C 100 μg/ml, LPS 1 μg/ml, ISS-ODN 10 μg/ml, n.d.=none detected
# Procedure: The cytokine responses of murine bone marrow mononuclear cells were compared to a TLR2-L (PGS), a TLR3-L (polyI:C), a TLR4-L(LPS), and a TLR9-L (ISS-ODN). IL-12, IL-10, IL-6, IL-1b, and KC (a chemokine) were assayed by ELISA (See 2.1.b Results).
# Bone marrow cells were cultured in triplicate at 5×10^5 cells/ml with each TLR ligand in dose response studies covering a 3 log concentration range. The cells were cultured for 48 hours and supernatant cytokine levels were analyzed by ELISA. The minimal optimal concentration for each reagent was reported with a three fold increase in TLR ligand concentration not leading to any significant increase in cytokine production. Results are reported as means ± standard errors. n.d.=none detected
# [16] = system: BALB/c mice; test: Systemic adjuvant activity: intradermal immunization with ovalbumin (OVA) and TLR ligand; assay type: in vivo
# Procedure: Recently, the systemic adjuvant activities of other TLR-Ls were evaluated.
# Six-week-old BALB/c mice (4 per group) were intradermally immunized with ovalbumin (OVA) (20 ug) and TLR ligand on day 0 and day 7. During week 6, serum was collected and splenocytes were harvested and cultured with OVA (50 ug/ml). After 3 days, splenocyte culture supernatants were collected. Sera Ig levels and splenocyte supernatant cytokine levels were determined by ELISA. Results are reported as means ± standard errors. n.d.=none detected.
# [17] = system: mice; test: ISS pre-priming before β-gal immunization (splenocyte IFN-γ and CTL response); assay type: in vivo; settings: ISS up to 14 days prior to β-gal, compared to β-gal alone (P≦0.05)
# Source text: FIG. 3 depicts splenocyte CTL and IFN-γ response after intradermal ISS pre-priming. Results represent the mean ± SE for four mice in each group and similar results were obtained in two other independent experiments. […] (a) IFN-γ response. […] (C) Comparison of CTL response at an effector:target ratio of 25:1.
# In this experiment, the amount of time between which a mouse exposed to an antigen can produce an immune response was examined. (FIG. 3)
# The results in FIG. 3 represent the mean ± SE for four mice in each group. Similar results were obtained in two other independent experiments. […] (A) IFN-γ response. […] (C) Comparison of CTL response at an effector:target ratio of 25:1.
# [18] = splenocytes of week 6 cultured 3 days with OVA 50 ug/ml, supernatant ELISA, same immunization, n.d.=none detected
compound,measurement,setting,value
Nc1nc2c(ccn2[C@@H]2O[C@H](CO)[C@@H](O)[C@H]2O)c(=O)[nH]1 [7-deazaguanosine],toxicity to mice,[1]; after systemic administration,remarkably non-toxic to mice
same,protection of mice from Punta toro virus infection,[2],protected mice from lethal infection
CCCCCCn1cnc2c(=O)[nH]c(N)nc21 [9-hexylguanine],protection of mice from Punta toro virus infection,[2],protected mice from lethal infection
"Nc1ccn(C[C@@H](CO)OCP(=O)(O)O)c(=O)n1 [Cidofovir, cidofovir]",lung viral titer,[3],~10^7 PFU/g of lung
same,protection of mice from death,[3],protects all mice from death
"NC(=O)c1ncn([C@@H]2O[C@H](CO)[C@@H](O)[C@H]2O)c1O [Mizoribine, mizoribine]",cytokine production induced by several different TLR-L,[4],potentiated cytokine production
same,increase of Type I interferon in blood (serum),[5],more than 4 fold
same,TLR7 mediated type I interferon production in splenocytes,[6],more than two-fold
same,IL-12 production with TOG plus IMPDH inhibitor,[7]; 24 hrs,synergize with TOG
same,cytokine production induced by several different TLR-L,[7],potentiated cytokine production
NC(=O)c1ncn([C@@H]2O[C@H](CO)[C@@H](O)[C@H]2O)n1 [Ribavirin],IL-12 production after stimulation with TOG,[8],enhanced the increase of IL-12 production
same,cytokine production induced by several different TLR-L,[4],potentiated cytokine production
same,TOG-induced NF-κB activation (EMSA) and IRF-3 (western blotting),"[9]; BMDM, TOG with Rb 50 μM",enhances TOG-induced NF-κB activation and activates IRF-3 transcription factor
same,activation of STAT-1,[10],enchanced activiation
same,protection of mice from Punta toro virus infection,[2],significant activity
same,IL-6 production by R-848 in the presence of ribavirin,"[7]; macrophages, abolished by addition of guanosine to the media (not shown)",enhancement of IL-6 production by R-848
same,cytokine production induced by several different TLR-L,[7],potentiated cytokine production
same,cytokine induction by ribavirin alone,[7]; no TLR ligand,did not induce any cytokines
same,TLR-mediated production of IL-12 (p40) in the presence of ribavirin,"[7]; ribavirin 10, 50, 100 μM, TLR ligands TOG 100 μM, R-848 1 μM, Pam3Cys 5 μg, p(I:C) 5 μg, LPS 10 ng, ISS 5 μg, 24 hrs",enhances TLR-mediated production of IL-12 (p40) in a dose dependent manner
"Nc1nc2c(sc(=O)n2[C@@H]2O[C@H](CO)[C@@H](O)[C@H]2O)c(=O)[nH]1 [TOG, 7-thia-8-oxoguanosine]",activation of DNA-PKcs,[11]; single agents,activate DNA dependent protein kinase catalytic subunit (DNA-PKcs)
same,"levels of nuclear IRF-1, IRF-3 and IRF-7",[9]; bone marrow cells exposed to TOG,increase markedly
same,toxicity to mice,"[1]; mouse, in vivo",remarkably non-toxic to mice
same,protection of mice from Punta toro virus infection,[2],protected mice from lethal infection; also recorded: significant activity
NC(=O)c1[nH]cnc1O [mizoribine base],IL-12 production after stimulation with TOG,[8],enhanced the increase of IL-12 production
same,"TLR7 signaling (NF-κB, MAP kinases p38 and EKR)",[12],enhanced TLR7 signaling in DC's
same,cytokine production induced by several different TLR-L,[4],potentiated cytokine production
same,DNA-PK activation by the combination of TOG and Mb,[11],increased phosphorylation of substrates and earlier onset of phosphorylation
same,increase of Type I interferon in blood (serum),[5],augments TLR-7 mediated type I interferon production
same,dependence of IRF activation on DNA-PKcs and MyD88,[9]; cells from wild-type mice and SCID mice,via DNA-PKcs but not MyD88
same,activation of STAT-1,[10],enchanced activiation
same,TLR7 mediated type I interferon production in splenocytes,[6],augments TLR-7 mediated type I interferon production
same,dependence of type I interferon induction by TOG combined with Mb on DNA-PKcs,"[6]; splenocytes of WT or SCID mice, TOG 100 μM, Mb 10 μM",partially dependent on DNA-PKcs
same,IL-12 production with TOG plus IMPDH inhibitor,[7]; 24 hrs,synergize with TOG
same,cytokine production induced by several different TLR-L,[7],potentiated cytokine production
COc1c(C)c2c(c(O)c1C/C=C(\C)CCC(=O)O)C(=O)OC2 [mycophenolic acid],IL-12 production after stimulation with TOG,[8],enhanced the increase of IL-12 production
IFN-γ,killing of the inoculum,[13],90-99%
Pam3Cys,protection (survival) of mice from Listeria infection,[14],lived longer than controls
PolyI:C,IL-12,"[15]; 5×10^5 cells/ml, minimal optimal concentration: PGS 100 μg/ml, means ± standard errors",570 ± 62 pg/mL
same,IL-1b,[15]; PGS 100 μg/ml,148 ± 27 pg/mL
same,IL-6,[15]; PGS 100 μg/ml,2380 ± 657 pg/mL
same,IL-10,[15]; PGS 100 μg/ml,1374 ± 237 pg/mL
same,KC,"[15]; chemokine, PGS 100 μg/ml",349 ± 62 pg/mL
same,systemic adjuvant activity for vaccination,"[16]; mouse, in vivo",effective systemic adjuvants
same,IgGl,"[16]; serum, week 6, OVA 20 ug + TLR ligand i.d. day 0 and day 7, PGS 50 ug, PolyI:C 50 ug, LPS 20 ug, ISS-ODN 50 ug",18853 ± 2439 U/ml
same,IgG2a,"[16]; serum, week 6, OVA 20 ug + TLR ligand i.d. day 0 and day 7, PGS 50 ug, PolyI:C 50 ug, LPS 20 ug, ISS-ODN 50 ug, n.d.=none detected",2642 ± 380 U/ml
same,IFNg,[16]; [18],672 ± 322 pg/mL
same,IL-5,[16]; [18],236 ± 87 pg/mL
"m-ODN: control mutated ODN 5′-TGACTGTGAAGGTTAGAGATGA-3′ that lacks ISS activity (DNA, all phosphorothioate, methylation of C not given here)",CTL response,[17],did not demonstrate an increased IFN-γ or CTL response
same,splenocyte IFN-γ response,[17],did not demonstrate an increased IFN-γ or CTL response
